# Data published in patent publication US9695155B2, “Herbicidal substituted pyrimidinyloxy benzene compounds” (E. I. DU PONT DE NEMOURS AND COMPANY, priority 2013, dated 2017).
# Columns and labels:
# [1] = test system: corn; assay: Test A postemergence; type: in vivo, Zea mays; settings: 0 to 100 scale, 0 no effect, 100 complete control
# Source text: (§1) Seeds of plant species selected from barnyardgrass (Echinochloa crus-galli), kochia (Kochia scoparia), ragweed (common ragweed, Ambrosia elatior), Italian ryegrass (Lolium multiflorum), large (Lg) crabgrass (Digitaria sanguinalis), giant foxtail (Setaria faberii), morningglory (Ipomoea spp.), pigweed (Amaranthus retroflexus), velvetleaf (Abutilon theophrasti), wheat (Triticum aestivum), and corn (Zea mays) were planted into a blend of loam soil and sand and treated preemergence with a directed soil spray using test chemicals formulated in a non-phytotoxic solvent mixture which included a surfactant.
# (§2) At the same time, plants selected from these crop and weed species and also blackgrass (Alopecurus myosuroides), and galium (catchweed bedstraw, Galium aparine) were planted in pots containing the same blend of loam soil and sand and treated with postemergence applications of test chemicals formulated in the same manner. Plants ranged in height from 2 to 10 cm and were in the one- to two-leaf stage for the postemergence treatment. Treated plants and untreated controls were maintained in a greenhouse for approximately 10 days, after which time all treated plants were compared to untreated controls and visually evaluated for injury. Plant response ratings, summarized in Table A, are based on a 0 to 100 scale where 0 is no effect and 100 is complete control. A dash (-) response means no test result.
# [2] = test system: wheat; assay: Test A preemergence; type: in vivo, Triticum aestivum; settings: 0 to 100 scale, 0 no effect, 100 complete control, approx. 10 days
# Source text: as §1, §2
# [3] = test system: barnyardgrass; assay: Test A postemergence; type: in vivo, Echinochloa crus-galli; settings: 0 to 100 scale, 0 no effect, 100 complete control
# Source text: as §1, §2
# [4] = test system: wheat; assay: Test A postemergence; type: in vivo, Triticum aestivum
# Source text: as §1, §2
# [5] = test system: giant foxtail; assay: Test A preemergence; type: in vivo, Setaria faberii; settings: 0 to 100 scale, 0 no effect, 100 complete control, approx. 10 days
# Source text: as §1, §2
# [6] = test system: pigweed; assay: Test A postemergence; type: in vivo, Amaranthus retroflexus
# Source text: as §1, §2
# [7] = test system: morningglory; assay: Test A postemergence; type: in vivo, Ipomoea spp.
# Source text: as §1, §2
# [8] = test system: large (Lg) crabgrass; assay: Test A preemergence; type: in vivo, Digitaria sanguinalis; settings: 0 to 100 scale, 0 no effect, 100 complete control; for Crabgrass, Large plant response rating: approx. 10 days
# Source text: as §1, §2
# [9] = test system: velvetleaf; assay: Test A preemergence; type: in vivo, Abutilon theophrasti; settings: 0 to 100 scale, 0 no effect, 100 complete control, approx. 10 days
# Source text: as §1, §2
# [10] = test system: pigweed; assay: Test A preemergence; type: in vivo, Amaranthus retroflexus; settings: 0 to 100 scale, 0 no effect, 100 complete control, approx. 10 days
# Source text: as §1, §2
# [11] = test system: barnyardgrass; assay: Test A preemergence; type: in vivo, Echinochloa crus-galli; settings: 0 to 100 scale, 0 no effect, 100 complete control; for Barnyardgrass plant response rating: approx. 10 days
# Source text: as §1, §2
# [12] = test system: giant foxtail; assay: Test A postemergence; type: in vivo, Setaria faberii
# Source text: as §1, §2
# [13] = test system: morningglory; assay: Test A preemergence; type: in vivo, Ipomoea spp.; settings: 0 to 100 scale, 0 no effect, 100 complete control, approx. 10 days
# Source text: as §1, §2
# [14] = test system: corn; assay: Test A preemergence; type: in vivo, Zea mays; settings: 0 to 100 scale, 0 no effect, 100 complete control; for Corn plant response rating: approx. 10 days
# Source text: as §1, §2
# [15] = test system: large (Lg) crabgrass; assay: Test A postemergence; type: in vivo, Digitaria sanguinalis; settings: 0 to 100 scale, 0 no effect, 100 complete control
# Source text: as §1, §2
# [16] = test system: velvetleaf; assay: Test A postemergence; type: in vivo, Abutilon theophrasti
# Source text: as §1, §2
# [17] = 1000 g ai/ha, 0 to 100 scale, 0 no effect, 100 complete control
# [18] = 500 g ai/ha, 0 to 100 scale where 0 is no effect and 100 is complete control
Structure (SMILES),"Plant response rating, Corn ([1]; 1000 g ai/ha)",Wheat plant response rating ([2]; 1000 g ai/ha),"Plant response rating, Barnyardgrass ([3]; 1000 g ai/ha)","Plant response rating, Wheat [4, 17]","Foxtail, Giant plant response rating ([5]; 1000 g ai/ha)","Plant response rating, Pigweed [6, 17]","Plant response rating, Morningglory [7, 17]","Plant response rating, Crabgrass, Large ([8]; 1000 g ai/ha)",Velvetleaf plant response rating ([9]; 1000 g ai/ha),Pigweed plant response rating ([10]; 1000 g ai/ha),"Plant response rating, Barnyardgrass ([11]; 1000 g ai/ha)","Plant response rating, Foxtail, Giant [12, 17]",Morningglory plant response rating ([13]; 1000 g ai/ha),"Plant response rating, Corn ([14]; 1000 g ai/ha)","Plant response rating, Crabgrass, Large ([15]; 1000 g ai/ha)","Plant response rating, Velvetleaf [16, 17]",further results
N#Cc1cnn(-c2ccccc2Oc2ncc(Cl)cn2)n1 [Compound 55],20,0,10,0,90,90,80,90,100,90,40,60,0,0,40,100,–
N#Cc1cnn(-c2ccccc2Oc2ncc(Br)cn2)n1 [Compound 56],20,0,30,0,30,90,0,80,90,100,0,30,0,20,40,100,–
FC(F)(F)Oc1cccc(Oc2ncc(Cl)cn2)c1-n1cc(Br)cn1 [Compound 78],–,–,–,–,–,–,–,–,–,–,–,–,–,–,–,–,"Plant response rating, Corn ([1]; 500 g ai/ha): 30; Wheat plant response rating ([2]; 500 g ai/ha): 10; Plant response rating, Barnyardgrass ([3]; 500 g ai/ha): 50; Plant response rating, Wheat [4, 18]: 20; Foxtail, Giant plant response rating ([5]; 500 g ai/ha): 100; Plant response rating, Pigweed [6, 18]: 100; Plant response rating, Morningglory [7, 18]: 90; Crabgrass, Large plant response rating ([8]; 500 g ai/ha): 100; Velvetleaf plant response rating ([9]; 500 g ai/ha): 50; Pigweed plant response rating ([10]; 500 g ai/ha): 100; Barnyardgrass plant response rating ([11]; 500 g ai/ha): 80; Plant response rating, Foxtail, Giant [12, 18]: 90; Morningglory plant response rating ([13]; 500 g ai/ha): 20; Corn plant response rating ([14]; 500 g ai/ha): 10; Plant response rating, Crabgrass, Large ([15]; 500 g ai/ha): 100; Plant response rating, Velvetleaf [16, 18]: 100"
Clc1cnc(Oc2ccccc2-n2cc(Cl)nn2)nc1 [Compound 224],50,60,90,60,100,100,100,–,100,100,–,90,90,–,80,100,"Crabgrass, Large plant response rating ([8]; 1000 g ai/ha): 100; Barnyardgrass plant response rating ([11]; 1000 g ai/ha): 100; Corn plant response rating ([14]; 1000 g ai/ha): 40"
